Data taken from ChEMBL document CHEMBL1140770, “Chemo-, regio-, and stereoselectivity of F-ring opening reactions in the cephalostatin series” (2008).

Assays:
Type in all cases: functional
Settings in all cases: for CC50: read-out: LC50 (the source's name)
[1] = Cytostatic activity against human HM02 cells by SRB assay
MCF7 = assay: Cytostatic activity against human MCF7 cells by SRB assay
HepG2 = assay: Cytostatic activity against human HepG2 cells by SRB assay

| Structure (SMILES) | GI50 [1] [µM] | TGI [1] [µM] | CC50 [1] [µM] | GI50 (MCF7) [µM] | TGI (MCF7) [µM] | CC50 (MCF7) [µM] | GI50 (HepG2) [µM] | TGI (HepG2) [µM] | CC50 (HepG2) [µM] |
| --- | --- | --- | --- | --- | --- | --- | --- | --- | --- |
| C[C@H]1CC[C@@]2(OC1)O[C@H]1C=C3[C@@H]4CC[C@H]5Cc6nc7c(nc6C[C@]5(C)[C@H]4C[C@@H](O)[C@]3(C)[C@H]1[C@@H]2C)C[C@@H]1CC[C@H]2C3=C[C@@H]4O[C@]5(CC[C@H](C)CO5)[C@@H](C)[C@@H]4[C@@]3(C)C3(C[C@@H]2[C@@]1(C)C7)OCCO3 | 2.8 | > 10 | > 10 | 0.1 | > 10 | > 10 | 0.07 | 1.7 | > 10 |
| C=C1C[C@H]2[C@@H](CC[C@H]3Cc4nc5c(nc4C[C@@]32C)C[C@@H]2CC[C@H]3C4=C[C@@H]6O[C@]7(CC[C@H](C)CO7)[C@@H](C)[C@@H]6[C@@]4(C)C(=O)C[C@@H]3[C@@]2(C)C5)C2=C[C@@H]3O[C@]4(CC[C@H](C)CO4)[C@@H](C)[C@@H]3[C@@]12C | > 10 | > 10 | > 10 | > 10 | > 10 | > 10 | > 10 | > 10 | > 10 |
| C[C@H]1CC[C@@]2(OC1)O[C@H]1C=C3[C@@H]4CC[C@H]5Cc6nc7c(nc6C[C@]5(C)[C@H]4C[C@@H](O)[C@]3(C)[C@H]1[C@@H]2C)C[C@@H]1CC[C@H]2C3=C[C@@H]4O[C@]5(CC[C@H](C)CO5)[C@@H](C)[C@@H]4[C@@]3(C)C(CO)C[C@@H]2[C@@]1(C)C7 (stereo partly specified) | 2.3 | > 10 | > 10 | 0.1 | > 10 | > 10 | 6.9 | 10 | > 10 |
| C[C@H](CO)CC[C@H]1O[C@H]2C=C3[C@@H]4CC[C@H]5Cc6nc7c(nc6C[C@]5(C)[C@H]4C[C@@H](O)[C@]3(C)[C@H]2[C@@H]1C)C[C@@H]1CC[C@H]2C3=C[C@@H]4O[C@H](CC[C@H](C)CO)[C@@H](C)[C@@H]4[C@@]3(C)C3(C[C@@H]2[C@@]1(C)C7)OCCO3 | 0.63 | 1 | > 10 | 8.2 | > 10 | > 10 | 1 | > 10 | > 10 |
| C[C@H](CO)CC[C@H]1O[C@H]2C=C3[C@@H]4CC[C@H]5Cc6nc7c(nc6C[C@]5(C)[C@H]4CC4(OCCO4)[C@]3(C)[C@H]2[C@@H]1C)C[C@@H]1CC[C@H]2C3=C[C@@H]4O[C@]5(CC[C@H](C)CO5)[C@@H](C)[C@@H]4[C@@]3(C)[C@H](O)C[C@@H]2[C@@]1(C)C7 | 0.95 | 3.1 | > 10 | 2.5 | 10 | > 10 | 10 | > 10 | > 10 |
| C[C@H]1CC[C@@]2(OC1)O[C@H]1C=C3[C@@H]4CC[C@H]5Cc6nc7c(nc6C[C@]5(C)[C@H]4CC(=O)[C@]3(C)[C@H]1[C@@H]2C)C[C@@H]1CC[C@H]2C3=C[C@@H]4O[C@]5(CC[C@H](C)CO5)[C@@H](C)[C@@H]4[C@@]3(C)C(=O)C[C@@H]2[C@@]1(C)C7 | 5.5 | 7 | > 10 | > 10 | > 10 | > 10 | 4.6 | > 10 | > 10 |
| C[C@H]1CC[C@@]2(OC1)O[C@H]1C=C3[C@@H]4CC[C@H]5Cc6nc7c(nc6C[C@]5(C)[C@H]4CC(=O)[C@]3(C)[C@H]1[C@@H]2C)C[C@@H]1CC[C@H]2C3=C[C@@H]4O[C@]5(CC[C@H](C)CO5)[C@@H](C)[C@@H]4[C@@]3(C)[C@H](O)C[C@@H]2[C@@]1(C)C7 | 3 | > 10 | > 10 | > 10 | > 10 | > 10 | > 10 | > 10 | > 10 |
| C[C@H]1CC[C@@]2(OC1)O[C@H]1C=C3[C@@H]4CC[C@H]5Cc6nc7c(nc6C[C@]5(C)[C@H]4C[C@@H](O)[C@]3(C)[C@H]1[C@@H]2C)C[C@@H]1CC[C@H]2C3=C[C@@H]4O[C@]5(CC[C@H](C)CO5)[C@@H](C)[C@@H]4[C@@]3(C)[C@H](O)C[C@@H]2[C@@]1(C)C7 | 2.6 | 7 | > 10 | 5.2 | > 10 | > 10 | 0.65 | 5 | > 10 |
| C=C1C[C@H]2[C@@H](CC[C@H]3Cc4nc5c(nc4C[C@@]32C)C[C@@H]2CC[C@H]3C4=C[C@@H]6O[C@H](CC[C@H](C)CO)[C@@H](C)[C@@H]6[C@@]4(C)[C@H](O)C[C@@H]3[C@@]2(C)C5)C2=C[C@@H]3O[C@H](CC[C@H](C)CO)[C@@H](C)[C@@H]3[C@@]12C | 1.7 | 5.8 | 9.5 | 5 | > 10 | > 10 | 1 | > 10 | > 10 |
